Test results published in the supplement of paper PMC10307832.

Experiments:
Assay in all cases: relative viability (nuclei count vs DMSO), 5 days (fraction); higher = more cells survive
NCI-H1648 = tested on: NCI-H1648
Summary of the method: (§1)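 After 5 days of treatment, lung cancer cells in 1536-well plates were fixed and stained in a single step (final 0.05% Triton X-100, 1% formaldehyde, 1 ug/ml Hoechst) and their nuclei counted on 4× images. Treatment had been applied by pin tool the day after seeding as one drug alone or as a fixed anchor-drug dose with five library-drug doses (not always all listed) in √10 steps. Relative viability is the nuclei count of treated wells divided by that of vehicle wells, and values are medians of duplicate plates.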

NCI-H522 = tested on: NCI-H522
Summary of the method: as §1

NCI-H2342 = tested on: NCI-H2342
Summary of the method: as §1

SW 900 = tested on: SW 900
Summary of the method: as §1

NCI-H1563 = tested on: NCI-H1563
Summary of the method: as §1

NCI-H1299 = tested on: NCI-H1299
Summary of the method: as §1

IA-LM = tested on: IA-LM
Summary of the method: as §1

NCI-H1703 = tested on: NCI-H1703
Summary of the method: as §1

Calu-6 = tested on: Calu-6
Summary of the method: as §1

EBC-1 = tested on: EBC-1
Summary of the method: as §1

A549 = tested on: A549
Summary of the method: as §1

SMILES	relative viability (NCI-H1563; first compound 0.08 µM)	relative viability (NCI-H1563; first compound 0.253 µM)	relative viability (NCI-H1563; first compound 0.8 µM)	relative viability (NCI-H1563; first compound 2.53 µM)	relative viability (NCI-H1563; first compound 8 µM)	relative viability (NCI-H1299; first compound 0.08 µM)	relative viability (NCI-H1299; first compound 0.253 µM)	relative viability (NCI-H1299; first compound 0.8 µM)	relative viability (NCI-H1299; first compound 2.53 µM)	relative viability (NCI-H1299; first compound 8 µM)	relative viability (IA-LM; first compound 0.253 µM)	relative viability (IA-LM; first compound 0.8 µM)	relative viability (IA-LM; first compound 2.53 µM)	relative viability (IA-LM; first compound 8 µM)	relative viability (NCI-H1703; first compound 0.08 µM)	relative viability (NCI-H1703; first compound 0.253 µM)	relative viability (NCI-H1703; first compound 0.8 µM)	relative viability (NCI-H1703; first compound 2.53 µM)	relative viability (NCI-H1703; first compound 8 µM)	relative viability (Calu-6; first compound 0.08 µM)	also measured
O=c1[nH]c2ccccc2n1C1CCN(CCCC(c2ccc(F)cc2)c2ccc(F)cc2)CC1 [Pimozide] + CC(=O)c1c(C)c2cnc(Nc3ccc(N4CCNCC4)cn3)nc2n(C2CCCC2)c1=O [Palbociclib] (partner 0.5 µM)																					relative viability (NCI-H1648; first compound 0.08 µM): 0.301; relative viability (NCI-H1648; first compound 0.8 µM): 0.233; relative viability (NCI-H1648; first compound 2.53 µM): 0.282; relative viability (NCI-H1648; first compound 8 µM): 0.31; relative viability (NCI-H522; first compound 0.08 µM): 0.766; relative viability (NCI-H522; first compound 0.253 µM): 0.785; relative viability (NCI-H522; first compound 0.8 µM): 0.94; relative viability (NCI-H522; first compound 2.53 µM): 0.891; relative viability (NCI-H522; first compound 8 µM): 0.901; relative viability (NCI-H2342; first compound 0.08 µM): 0.573; relative viability (NCI-H2342; first compound 0.253 µM): 0.526; relative viability (NCI-H2342; first compound 0.8 µM): 0.436; relative viability (NCI-H2342; first compound 2.53 µM): 0.484; relative viability (NCI-H2342; first compound 8 µM): 0.507; relative viability (SW 900; first compound 0.08 µM): 0.526; relative viability (SW 900; first compound 0.253 µM): 0.572; relative viability (SW 900; first compound 2.53 µM): 0.511; relative viability (SW 900; first compound 8 µM): 0.443
O=c1[nH]c2ccccc2n1C1CCN(CCCC(c2ccc(F)cc2)c2ccc(F)cc2)CC1 [Pimozide] + CS(=O)(=O)CCNCc1ccc(-c2ccc3ncnc(Nc4ccc(OCc5cccc(F)c5)c(Cl)c4)c3c2)o1 [Lapatinib] (partner 2 µM)	0.955	0.829	0.933	0.756	0.533	0.977	0.972	0.91	0.937	0.875	0.987	0.64	0.761	0.893	1.02	0.944	0.763	0.958	0.865	1.08	relative viability (IA-LM; first compound 0.08 µM): 0.888; relative viability (Calu-6; first compound 0.253 µM): 1.07; relative viability (Calu-6; first compound 0.8 µM): 1.02; relative viability (Calu-6; first compound 2.53 µM): 1.02; relative viability (Calu-6; first compound 8 µM): 0.933; relative viability (EBC-1; first compound 0.08 µM): 0.208; relative viability (EBC-1; first compound 0.253 µM): 0.213; relative viability (EBC-1; first compound 0.8 µM): 0.192; relative viability (EBC-1; first compound 2.53 µM): 0.223; relative viability (EBC-1; first compound 8 µM): 0.162; relative viability (A549; first compound 0.08 µM): 0.912; relative viability (A549; first compound 0.253 µM): 1.01; relative viability (A549; first compound 0.8 µM): 0.976; relative viability (A549; first compound 2.53 µM): 0.882; relative viability (A549; first compound 8 µM): 0.802
O=c1[nH]c2ccccc2n1C1CCN(CCCC(c2ccc(F)cc2)c2ccc(F)cc2)CC1 [Pimozide] + CS(=O)(=O)N1CCN(Cc2cc3nc(-c4cccc5[nH]ncc45)nc(N4CCOCC4)c3s2)CC1 [Pictilisib] (partner 1 µM)	0.654	0.646	0.667	0.642	0.637	0.788	0.729	0.666	0.745	0.703	0.28	0.288	0.404	0.438	0.24	0.273	0.296	0.264	0.246	0.952	relative viability (Calu-6; first compound 0.253 µM): 0.984; relative viability (Calu-6; first compound 0.8 µM): 0.808; relative viability (Calu-6; first compound 2.53 µM): 0.84; relative viability (Calu-6; first compound 8 µM): 0.872; relative viability (EBC-1; first compound 0.08 µM): 0.393; relative viability (EBC-1; first compound 0.253 µM): 0.37; relative viability (EBC-1; first compound 0.8 µM): 0.364; relative viability (EBC-1; first compound 2.53 µM): 0.269; relative viability (EBC-1; first compound 8 µM): 0.27; relative viability (A549; first compound 0.08 µM): 0.524; relative viability (A549; first compound 0.253 µM): 0.472; relative viability (A549; first compound 0.8 µM): 0.494; relative viability (A549; first compound 2.53 µM): 0.385; relative viability (A549; first compound 8 µM): 0.448
O=c1[nH]c2ccccc2n1C1CCN(CCCC(c2ccc(F)cc2)c2ccc(F)cc2)CC1 [Pimozide] + C[C@@H](Oc1cc(-c2cnn(C3CCNCC3)c2)cnc1N)c1c(Cl)ccc(F)c1Cl [Crizotinib] (partner 1 µM)	0.824	0.844	0.803	0.775	0.645	0.955	0.838	0.934	0.811	0.885	0.88	0.988	0.879	0.859	0.489	0.852	0.666	0.403	0.545	0.781	relative viability (IA-LM; first compound 0.08 µM): 0.975; relative viability (Calu-6; first compound 0.253 µM): 0.814; relative viability (Calu-6; first compound 0.8 µM): 0.793; relative viability (Calu-6; first compound 2.53 µM): 0.679; relative viability (Calu-6; first compound 8 µM): 0.624; relative viability (EBC-1; first compound 0.08 µM): 0.19; relative viability (EBC-1; first compound 0.253 µM): 0.232; relative viability (EBC-1; first compound 0.8 µM): 0.199; relative viability (EBC-1; first compound 2.53 µM): 0.175; relative viability (EBC-1; first compound 8 µM): 0.152; relative viability (A549; first compound 0.08 µM): 0.756; relative viability (A549; first compound 0.253 µM): 0.668; relative viability (A549; first compound 0.8 µM): 0.643; relative viability (A549; first compound 2.53 µM): 0.658; relative viability (A549; first compound 8 µM): 0.644
O=c1[nH]c2ccccc2n1C1CCN(CCCC(c2ccc(F)cc2)c2ccc(F)cc2)CC1 [Pimozide] + C[C@]1(O)C[C@@H](c2nc(-c3ccc4ccc(-c5ccccc5)nc4c3)c3c(N)nccn32)C1 [Linsitinib] (partner 1 µM)	1.12	1.19	1.35	1.16	0.861	0.949	0.945	0.923	0.899	0.949	0.566	0.356	0.456	0.759	0.637	0.544	0.637	0.514	0.553	0.986	relative viability (IA-LM; first compound 0.08 µM): 0.652; relative viability (Calu-6; first compound 0.253 µM): 0.94; relative viability (Calu-6; first compound 0.8 µM): 0.843; relative viability (Calu-6; first compound 2.53 µM): 0.881; relative viability (Calu-6; first compound 8 µM): 0.913; relative viability (EBC-1; first compound 0.08 µM): 0.867; relative viability (EBC-1; first compound 0.253 µM): 0.844; relative viability (EBC-1; first compound 0.8 µM): 0.766; relative viability (EBC-1; first compound 2.53 µM): 0.821; relative viability (EBC-1; first compound 8 µM): 0.892; relative viability (A549; first compound 0.08 µM): 0.426; relative viability (A549; first compound 0.253 µM): 0.497; relative viability (A549; first compound 0.8 µM): 0.627; relative viability (A549; first compound 2.53 µM): 0.548; relative viability (A549; first compound 8 µM): 0.619
O=c1[nH]c2ccccc2n1C1CCN(CCCC(c2ccc(F)cc2)c2ccc(F)cc2)CC1 [Pimozide] + Cc1nc(NC(=O)N2CCC[C@H]2C(N)=O)sc1-c1ccnc(C(C)(C)C(F)(F)F)c1 [Alpelisib] (partner 2 µM)	0.919	0.814	0.819	0.798	0.739	1.04	0.981	1.04	1.07	1.12	0.846	0.666	0.894	0.853	0.323	0.325	0.385	0.258	0.274	0.938	relative viability (IA-LM; first compound 0.08 µM): 0.695; relative viability (Calu-6; first compound 0.253 µM): 0.999; relative viability (Calu-6; first compound 0.8 µM): 0.92; relative viability (Calu-6; first compound 2.53 µM): 0.844; relative viability (Calu-6; first compound 8 µM): 0.883; relative viability (EBC-1; first compound 0.08 µM): 0.895; relative viability (EBC-1; first compound 0.253 µM): 0.724; relative viability (EBC-1; first compound 0.8 µM): 0.823; relative viability (EBC-1; first compound 2.53 µM): 0.796; relative viability (EBC-1; first compound 8 µM): 0.728; relative viability (A549; first compound 0.08 µM): 0.727; relative viability (A549; first compound 0.253 µM): 0.762; relative viability (A549; first compound 0.8 µM): 0.678; relative viability (A549; first compound 2.53 µM): 0.707; relative viability (A549; first compound 8 µM): 0.617
